From patent US12527798B2, “Preservation of immune response during chemotherapy regimens” (Pharmacosmos Holding A/S, priority 2016, dated 2026) come the findings set out here.

One test has as its system CD4+ and CD8+ T cells. The test is described as follows: T cell activation (CD69, IL-2) in splenocytes of MC38 tumor-bearing mice (Example 8). Type of test: in vivo. The following applies: Compound I added to oxaliplatin and anti-PD-L1, four days; spleen; FIGS. 16, 17. An excerpt: Twenty-four hours after the final dose, the mice were euthanized and spleens were harvested and processed to single-cell suspensions for T-cell analysis. Splenocytes were stained with anti-CD4, CD8, and CD69 antibodies for flow cytometric analysis. The percentage of activated CD4+ T cells was defined as the proportion of CD69+ cells within the CD8−CD4+ T cell fraction, while the percentage of activated CD8+ T cells was defined as the proportion of CD69+ cells within the CD8+CD4− T cell fraction, the results of which are shown in FIGS. 16 and 17. Additionally, splenocytes were also stimulated ex-vivo with anti-CD3/CD28 antibodies for 72 hours and were stained with anti-CD4, CD8, and IL-2 antibodies for flow cytometric analysis. The percentage of IL-2+ cells was defined as the proportion of IL-2+ cells within the […] T cell fraction, the results of which are shown in FIG. 18.

The next test deals with MC38 tumor. The test is described as follows: MC38 tumor volume under continuous daily dosing of Compound I with or without anti-PD-L1 (Example 16). Format: in vivo, mice. The following applies: continuous Compound I (daily x 28 days, IP, 100 mg/kg) added to anti-PD-L1; FIG. 38. Here is the method: MC38 tumor-bearing mice were treated with Compound I (daily×28 days, IP, 100 mg/kg) with or without anti-PD-L1 (biweekly×2 weeks, IP, 100 ug/animal) and tumor volume was evaluated.

Test [1] concerns MC38 tumors. Nature of the test: Whole-tumor interferon-gamma (Ifng) expression, PanCancer Immune Profiling Panel (Example 13). The following applies: Compound I added to oxaliplatin or oxaliplatin/anti-PD-L1 combinations, eight days; FIGS. 28-31. Type of test: in vivo, C57BL/6 mice. The procedure: Twenty-four hours after the final dose, mice were euthanized and tumors were harvested for analysis. Gene expression analysis was performed on whole tumors using the PanCancer Immune Profiling Panel. The normalized and Log 2 transformed expression level of interferon-gamma (Ifng) is plotted for each pair of treatment groups with or without Compound I. T=Compound I, O=oxaliplatin, P=anti-PD-L1.

Test [2] has as its system MC38 tumors. Nature of the test: Whole-tumor gene expression, PanCancer Immune Profiling Panel, two weekly doses (Examples 12 and 14). Type of test: in vivo, C57BL/6 mice. The following applies: two weekly doses 100 mg/kg IP, p <0.05, absolute fold change >1.3. The procedure: MC38 tumor-bearing C57BL/6 mice were treated with two weekly doses of Compound I (100 mg/kg, IP). One day after the last dose, mice were euthanized and tumors were harvested for analysis. Gene expression analysis was performed on whole tumors using the PanCancer Immune Profiling Panel. Normalized and Log 2 transformed expression values were used for identification of differentially expressed genes, defined using a p-value cutoff of <0.05 and absolute fold change >1.3.

The subject of another test is splenocytes. Nature of the test: Ex vivo splenocyte stimulation, IL-2 and IFNγ ELISA after 5-FU treatment (Example 6). Type of test: in vivo, C57BL/6 mice. The following applies: Compound I 100 mg/kg added to 5-FU 50 mg/kg, 3 daily IP doses, splenocytes stimulated with anti-CD3/CD28 72 h. Here is the method:
C57BL/6 mice were treated with 3 daily IP doses of 50 mg/kg 5-FU±100 mg/kg Compound I. Two and seven days after the final treatment, mice were euthanized and spleens were harvested. Splenocytes were stimulated ex vivo with anti-CD3/CD28 antibodies for 72 hours and interferon gamma (IFNγ) or interleukin-2 (IL-2) levels were measured via ELISA (R&D systems). After the ex-vivo splenocyte stimulation in C57BL/6 mice, Compound I enhanced IL-2 production (FIG. 12) and preserved IFNγ production (FIG. 13) after 5-FU treatment. A potential mechanism by which Compound I enhances anti-tumor activity includes the preservation of T lymphocyte function from chemotherapy.
(In general: An ELISA detects its analyte on a solid surface through an enzyme-linked reagent.)

For the molecule `CN1CCN(c2ccc(Nc3ncc4cc5n(c4n3)C3(CCCCC3)CNC5=O)nc2)CC1` [Compound I, trilaciclib], in the test with CD4+ and CD8+ T cells, the “T cell activation (CD69+ CD4+ and CD8+ T cells)” value was “Enhanced T Cell Activation”. Moreover, the “anti-tumor effect (tumor volume)” value in the test with MC38 tumor is “does not enhance the anti-tumor effect and, in fact, causes some attenuation”. The “interferon-gamma gene expression in tumor” value in the test with MC38 tumors [1] is “Upregulation”. The “expression of genes Il2, Il18, and Lta (positive regulation of interferon-gamma production)” value in the test with MC38 tumors [2] (FIGS. 25-27) was “Up-regulated”. The “expression of genes Cdkn1a, Cxcl1, Il6, Il10, Il19, Ptgs2 (reactive oxygen species metabolism)” value in the test on MC38 tumors [2] (FIGS. 32-37) is on record as “Down-regulated”. Moreover, the IL-2 production entry with splenocytes (FIG. 12) is “enhanced”. Moreover, in the test on splenocytes (FIG. 13), the IFNγ production entry was “preserved”.
